This is an account of results in patent US7868046B2, “(2R)-2-[(4-sulfonyl) aminophenyl] propanamides and pharmaceutical compositions containing them” (Dompe' Pha.r.ma S.p.A., priority 2006, dated 2011).

Data set [1] has as its system human PMNs. Kind of data set: CXCL8 induced human PMN chemotaxis inhibition. Format: cell-based. To be noted: hPMN chemotaxis, compound at 10^−7 M; for inhibition at 0.1 µM: Homo sapiens. The procedure: (§1) The compounds of the invention of formula (I) were evaluated in vitro for their ability to inhibit chemotaxis of polymorphonucleate leukocytes (hereinafter referred to as PMNs) and monocytes induced by the fractions of IL-8 and GRO-α. For this purpose, in order to isolate the PMNs from heparinized human blood, taken from healthy adult volunteers, mononucleates were removed by means of sedimentation on dextran (according to the procedure disclosed by W. J. Ming et al., J. Immunol., 138, 1469, 1987) and red blood cells by a hypotonic solution. The cell vitality was calculated by exclusion with Trypan blue, whilst the ratio of the circulating polymorphonucleates was estimated on the cytocentrifugate after staining with Diff Quick.
In the CXCL8 induced chemotaxis assay human recombinant CXCL8 (Pepro Tech) was used as stimulating agents in the chemotaxis experiments: the lyophilized protein was dissolved in a volume of HBSS containing 0.2% bovin serum albumin (BSA) so thus to obtain a stock solution having a concentration of 10^−5 M to be diluted in HBSS to a concentration of 10^−8 M, for the chemotaxis assays.
(§2) In the chemotaxis experiments, the PMNs were incubated with the compounds of the invention of formula (I) for 15′ at 37° C. in an atmosphere containing 5% CO2.
(§3) During the chemotaxis assay [W. Falket et al., J. Immunol. Methods, 33, 239, 1980] PVP-free filters with a porosity of 5 μm and microchambers suitable for replication were used.
(§4) The compounds of the invention in formula (I) were evaluated at a concentration ranging between 10^−6 and 10^−10 M; for this purpose they were added, at the same concentration, both to the lower pores and the upper pores of the microchamber. Evaluation of the ability of the compounds of the invention of formula (I) to inhibit the chemotaxis of human monocytes was carried out according to a disclosed method [Van Damme J. et al., Eur. J. Immunol., 19, 2367, 1989].

For data set [2], the system named is human PMNs. As to the kind of experiment: CXCL1 (GRO-α) induced human PMN chemotaxis inhibition. Format: cell-based. To be noted: hPMN chemotaxis, compound at 10^−8 M; for inhibition at 0.01 µM: Homo sapiens. The procedure: as §1
GRO-α induced chemotaxis inhibition was evaluated in an analogous assay.
as §2, §3, §4

As usually defined, the inhibition is the relative decrease from the control value, in per cent. A high value points to strong suppression. A word on the melting point: it is the temperature, or range, at which the solid turns liquid.

For the compound `CC(C)S(=O)(=O)Nc1ccc([C@@H](C)C(N)=O)cc1` [Compound 1, (2R)-2-{4-[(Isopropylsulfonyl]amino}phenyl)propanamide], the melting point is 125 to 127 °C. The inhibition at 0.1 µM with human PMNs [1] was determined as 7 ± 18%. Further, the inhibition at 0.01 µM in the data set on human PMNs [2] was found to be 67 ± 7%.

`C[C@@H](C(N)=O)c1ccc(NS(=O)(=O)c2ccccc2Cl)cc1` [Compound 2, (2R)-2-{4-{[(2-chlorophenyl)sulfonyl]amino}phenyl)propanamide] gave an inhibition at 0.1 µM with human PMNs [1] of 19 ± 5%. In addition, the inhibition at 0.01 µM in the data set on human PMNs [2] was 41 ± 7%.

In the data set on human PMNs [1], `C[C@@H](C(N)=O)c1ccc(NS(=O)(=O)c2c(Cl)cccc2Cl)cc1` [Compound 3, (2R)-2-{4-{[(2,6-dichlorophenyl)sulfonyl]amino}phenyl)propanamide] gave an inhibition at 0.1 µM of 14 ± 5%. This compound also had an inhibition at 0.01 µM in the data set on human PMNs [2] of 39 ± 10%.

`C[C@@H](C(N)=O)c1ccc(NS(C)(=O)=O)cc1` [Compound 4, (2R)-2-{4-[(methylsulfonyl)amino]phenyl}propanamide]: in the data set with human PMNs [1], at 0.1 µM the inhibition was 10 ± 7%. This compound yielded an inhibition at 0.01 µM with human PMNs [2] of 75 ± 7%.

Consider `C[C@@H](C(N)=O)c1ccc(NS(=O)(=O)c2ccccc2)cc1` [Compound 5, (2R)-2-{4-[(phenylsulfonyl)amino]phenyl}propanamide], for which the melting point is 152 to 153 °C. Moreover, the inhibition at 0.1 µM in the data set on human PMNs [1] was found to be 15 ± 10%. The compound further registered an inhibition at 0.01 µM with human PMNs [2] of 44 ± 9%.

In turn, `Cc1ccc(S(=O)(=O)Nc2ccc([C@@H](C)C(N)=O)cc2)cc1` [Compound 6, (2R)-2-{4-{[(4-methylphenyl)sulfonyl]amino}phenyl)propanamide] had a melting point of 138 to 140 °C. The same compound registered an inhibition at 0.1 µM in the data set with human PMNs [1] of 12 ± 10%. In addition, in the data set with human PMNs [2], the inhibition at 0.01 µM worked out at 65 ± 4%.

For the compound `COc1ccc(S(=O)(=O)Nc2ccc([C@@H](C)C(N)=O)cc2)cc1` [Compound 7, (2R)-2-{4-{[(4-methoxylphenyl)sulfonyl]amino}phenyl)propanamide], the melting point lay in the range of 118 to 120 °C. In the data set with human PMNs [1], this compound showed an inhibition at 0.1 µM of 9 ± 7%. Also, the inhibition at 0.01 µM with human PMNs [2] stood at 71 ± 11%.

In turn, `C[C@@H](C(N)=O)c1ccc(NS(=O)(=O)Cc2ccccc2)cc1` [Compound 8, (2R)-2-(4-[(benzylsulfonyl]amino}phenyl)propanamide] came in with a melting point of 68 to 70 °C. Further, in the data set with human PMNs [1], the inhibition at 0.1 µM worked out at 14 ± 9%. Besides, in the data set on human PMNs [2], 0.01 µM produced 58 ± 6% inhibition.

`C[C@@H](C(N)=O)c1ccc(NS(=O)(=O)c2ccc(Cl)cc2)cc1` [Compound 9, (2R)-2-(4-{[(4-chlorophenyl)sulfonyl]amino}phenyl)propanamide] registered a melting point of 150 to 153 °C. This compound registered an inhibition at 0.1 µM in the data set on human PMNs [1] of 20 ± 4%. In the data set on human PMNs [2], this compound had an inhibition at 0.01 µM of 53 ± 12%.

For `C[C@@H](C(N)=O)c1ccc(NS(=O)(=O)c2ccc(C(F)(F)F)cc2)cc1` [Compound 10, (2R)-2-(4-{[(4-(trifluoromethyl)phenyl]sulfonyl}amino)phenyl]propanamide], the melting point lay within 178 to 180 °C. Moreover, the inhibition at 0.1 µM in the data set with human PMNs [1] came out at 15 ± 7%. In the data set on human PMNs [2], the inhibition at 0.01 µM was determined as 69 ± 5%.

`C[C@@H](C(N)=O)c1ccc(NS(=O)(=O)c2cccs2)cc1` [Compound 11, (2R)-2-{4-[(thien-2ylsulfonyl)amino]phenyl}propanamide] showed a melting point of 58 to 60 °C. The same compound registered an inhibition at 0.1 µM with human PMNs [1] of 17 ± 4%. The compound further registered an inhibition at 0.01 µM in the data set with human PMNs [2] of 50 ± 2%.

With `C[C@@H](C(N)=O)c1ccc(NS(=O)(=O)C2CCCC2)cc1` [Compound 12, (2R)-2-{4-[(cyclopentylsulfonyl)amino]phenyl}propanamide], at 0.1 µM the inhibition in the data set on human PMNs [1] was 21 ± 10%. In addition, the inhibition at 0.01 µM in the data set with human PMNs [2] came to 67 ± 7%.

As to `C[C@@H](C(N)=O)c1ccc(NS(=O)(=O)C(F)(F)F)cc1` [Compound 13, (2R)-2-(4-{[(trifluoromethyl)sulfonyl]amino}phenyl)propanamide], 0.1 µM produced 24 ± 7% inhibition in the data set on human PMNs [1]. The same compound gave an inhibition at 0.01 µM with human PMNs [2] of 75 ± 11%.

Compound `CNC(=O)[C@H](C)c1ccc(NS(=O)(=O)C(C)C)cc1` [Compound 14, (2R)-2-{4-[(isopropylsulfonyl]amino}phenyl)-N-methylpropanamide] yielded an inhibition at 0.1 µM in the data set on human PMNs [1] of 8 ± 9%. Moreover, the inhibition at 0.01 µM in the data set on human PMNs [2] came out at 64 ± 8%.

For `CC(C)S(=O)(=O)Nc1ccc([C@@H](C)C(=O)N[C@@H](C)C(N)=O)cc1` [Compound 15, (2R)—N-[(1S)-2-amino-1-methyl-2-oxoethyl]-2-{4-[(isopropylsulfonyl]amino}phenyl) propanamide], the “CXCL8 (% inhibition at 10^−7 M)” value in the data set on human PMNs [1] is given as 10 ± 8%. The “CXCL1 (% inhibition at 10^−8 M)” value in the data set with human PMNs [2] worked out at 58 ± 2%.

Compound `CC(C)S(=O)(=O)Nc1ccc([C@@H](C)C(=O)Nc2nc(C(F)(F)F)cs2)cc1` [Compound 16, (2R)-2-{4-[(isopropylsulfonyl]amino}phenyl)-N-[4-(trifluoromethyl)-1,3-thiazol-2-yl]propanamide] gave an inhibition at 0.1 µM with human PMNs [1] of 11 ± 7%. The compound further had an inhibition at 0.01 µM in the data set with human PMNs [2] of 49 ± 10%.

Compound `C[C@@H](C(=O)Nc1nc(C(F)(F)F)cs1)c1ccc(NS(=O)(=O)c2ccccc2Cl)cc1` [Compound 17, (2R)-2-{4-{[(2-chlorophenyl)sulfonyl]amino}phenyl)-N-[4-(trifluoromethyl)-1,3-thiazol-2-yl]propanamide] showed an inhibition at 0.1 µM in the data set with human PMNs [1] of 14 ± 11%. This compound also registered an inhibition at 0.01 µM in the data set on human PMNs [2] of 40 ± 12%.

On to `C[C@@H](C(=O)NCCOCCO)c1ccc(NS(=O)(=O)c2ccccc2Cl)cc1` [Compound 18, (2R)-2-{4-{[(2-chlorophenyl)sulfonyl]amino}phenyl)-N-[2-(2-hydroxyethoxy)ethyl]propanamide], for which at 0.1 µM the inhibition in the data set with human PMNs [1] was 6 ± 7%. Further, at 0.01 µM the inhibition in the data set with human PMNs [2] was 59 ± 5%.

In turn, `C[C@@H](C(=O)NC1CC1)c1ccc(NS(=O)(=O)c2ccccc2Cl)cc1` [Compound 19, (2R)-2-{4-{[(2-chlorophenyl)sulfonyl]amino}phenyl)-N-cyclopropylpropanamide] returned an inhibition at 0.1 µM in the data set with human PMNs [1] of 19 ± 4%. Moreover, the inhibition at 0.01 µM in the data set on human PMNs [2] turned out to be 60 ± 8%.
